Results on 6 compounds are retold here after BindingDB's records for PubMed 10869375 (R. W. Johnson Pharmaceutical Research Institute, 2000).

One test concerns the target Histamine H3 receptor (Homo sapiens, UniProt Q9Y5N1).
The target in another test is Hrh3 protein (Rattus norvegicus, UniProt Q5PPG3).

The term Ki denotes the dissociation constant of the complex between target and ligand, obtained from inhibition or displacement. Read a high Ki as a looser hold on the target.

Where “and” joins values, the source holds several entries; their conditions need not be identical. Identical values can stand only once.

Histamine H3 receptor, sequence (Q9Y5N1 whole entry): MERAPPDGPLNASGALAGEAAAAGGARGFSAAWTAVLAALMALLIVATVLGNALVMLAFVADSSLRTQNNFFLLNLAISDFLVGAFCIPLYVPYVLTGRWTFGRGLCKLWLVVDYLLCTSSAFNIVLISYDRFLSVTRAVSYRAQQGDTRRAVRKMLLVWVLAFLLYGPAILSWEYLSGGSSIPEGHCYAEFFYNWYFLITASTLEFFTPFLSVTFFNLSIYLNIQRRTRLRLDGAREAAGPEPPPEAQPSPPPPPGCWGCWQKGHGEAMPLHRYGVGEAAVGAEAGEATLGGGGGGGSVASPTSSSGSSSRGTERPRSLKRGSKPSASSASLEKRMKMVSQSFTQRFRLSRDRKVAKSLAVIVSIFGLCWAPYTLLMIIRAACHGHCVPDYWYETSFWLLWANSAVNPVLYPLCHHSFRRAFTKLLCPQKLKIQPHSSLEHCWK
Hrh3 protein, sequence (Q5PPG3 whole entry): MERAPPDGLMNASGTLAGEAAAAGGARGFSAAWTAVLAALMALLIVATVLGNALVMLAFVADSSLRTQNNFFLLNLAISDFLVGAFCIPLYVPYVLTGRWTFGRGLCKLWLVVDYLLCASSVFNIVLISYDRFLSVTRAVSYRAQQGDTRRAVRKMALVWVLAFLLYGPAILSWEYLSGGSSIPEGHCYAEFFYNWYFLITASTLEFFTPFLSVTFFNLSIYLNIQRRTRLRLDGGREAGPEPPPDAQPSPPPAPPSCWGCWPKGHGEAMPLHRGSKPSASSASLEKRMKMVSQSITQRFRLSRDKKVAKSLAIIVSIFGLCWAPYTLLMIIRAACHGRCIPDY

Consider `N=C(N)SCCc1cnc[nH]1` [2-(3H-imidazol-4-yl)ethylsulfanylmethanimidamide], for which the Ki at Histamine H3 receptor was determined as 0.6 nM; on Hrh3 protein it was 0.2 nM. In the case of `CNCCc1c[nH]cn1` [N(alpha)-Methylhistamine], the Ki is 2.4 nM on Histamine H3 receptor; 1.2 nM and 1.5 nM on Hrh3 protein. For `S=C(NC1CCCCC1)N1CCC(c2cnc[nH]2)CC1`, the Ki on Hrh3 protein was 10.2 nM and 4.2 nM. In the case of `c1nc(CC2CCNCC2)c[nH]1` [4-(1H-imidazol-4-ylmethyl)piperidine], the Ki at Histamine H3 receptor is 1.6 nM; at Hrh3 protein, 0.5 nM and 1.4 nM.

As to `CN1CCN(C2=c3ccccc3=Nc3ccc(Cl)cc3N2)CC1` [6-chloro-10-(4-methylpiperazin-1-yl)-2,9-diazatricyclo[9.4.0.0^{3,8}]pentadeca-1,3(8),4,6,10,12,14-heptaene], the Ki on Hrh3 protein is 3000 nM and 1750 nM. Same read-out and setting: the value for `NCCc1c[nH]cn1` [[3H]histamine] was 12 nM and 13.2 nM.
